Test results: patent publication US20130245081A1, “Compositions and Methods for Treating Amyotrophic Lateral Sclerosis” (priority 2009, published 2013)
“And” between values parts separate entries of the source, which are not always exact repeats. Equal entries are not always repeated. Where two headings read alike, the source gives them in different places.

Tested on: patients with ALS
[1] = 50 mg, No Riluzole Use, through Week 28
[2] = 50 mg, Riluzole Use, through Week 28
[3] = 50 mg, double-blind treatment period
[4] = 50 mg, through the end of the study
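Also: adverse event data gathered at every clinic visit and phone contact, after first study drug dose, in a blinded trial, counts of affected subjects.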

CCCN[C@@H]1CCc2nc(N)sc2C1 [dexpramipexole, (6R)-2-amino-4,5,6,7-tetrahydro-6-(propylamino)benzothiazole]
subjects with increase from baseline in QTcF >30 msec (50 mg): Four
subjects with decrease in weight >7% from baseline (50 mg and 300 mg groups together, double-blind period): 30 subjects
AE: Anxiety [1]: 1 (4%) N (%)
AE: Constipation [1]: 4 (17%) N (%)
AE: Depression [1]: 4 (17%) N (%)
AE: Dry mouth [1]: 0 N (%)
AE: Dysarthria [1]: 1 (4%) N (%)
AE: Dyspnoea [1]: 3 (13%) N (%)
AE: Fall [1]: 6 (26%) N (%)
AE: Headache [1]: 1 (4%) N (%)
AE: Muscular weakness [1]: 7 (30%) N (%)
AE: Nausea [1]: 2 (9%) N (%)
AE: Oedema peripheral [1]: 4 (17%) N (%)
AE: Pharyngolaryngeal pain [1]: 1 (4%) N (%)
AE: Sinusitis [1]: 1 (4%) N (%)
AE: Upper respiratory tract infection [1]: 2 (9%) N (%)
AE: Urinary tract infection [1]: 1 (4%) N (%)
AE: Anxiety [2]: 1 (4%) N (%)
AE: Constipation [2]: 4 (16%) N (%)
AE: Depression [2]: 2 (8%) N (%)
AE: Dry mouth [2]: 1 (4%) N (%)
AE: Dysarthria [2]: 3 (12%) N (%)
AE: Dyspnoea [2]: 2 (8%) N (%)
AE: Fall [2]: 5 (20%) N (%)
AE: Headache [2]: 2 (8%) N (%)
AE: Muscular weakness [2]: 6 (24%) N (%)
AE: Nausea [2]: 2 (8%) N (%)
AE: Oedema peripheral [2]: 3 (12%) N (%)
AE: Pharyngolaryngeal pain [2]: 3 (12%) N (%)
AE: Sinusitis [2]: 1 (4%) N (%)
AE: Upper respiratory tract infection [2]: 3 (12%) N (%)
AE: Urinary tract infection [2]: 2 (8%) N (%)
incidence of ECGs with QTcB increased >30 msec from baseline (50 mg, any post-baseline visit): 17%
subjects with QTcF interval >450 msec (50 mg, any post-baseline visit): Two
AEs related to ALS as assessed by the Investigator [3]: 85%
subjects with prolonged QTcB [3]: 6 subjects
subjects with serum chemistry abnormalities of potential clinical significance [3]: 4 subjects
ALS-related TEAE: Affect liability (50 mg, through Week 28): 2 (4%) N (%)
ALS-related TEAE: Arthralgia (50 mg, through Week 28): 1 (2%) N (%)
ALS-related TEAE: Choking (50 mg, through Week 28): 2 (4%) N (%)
ALS-related TEAE: Constipation (50 mg, through Week 28): 4 (8%) N (%)
ALS-related TEAE: Contusion (50 mg, through Week 28): 1 (2%) N (%)
ALS-related TEAE: Dehydration (50 mg, through Week 28): 0 N (%)
ALS-related TEAE: Depression (50 mg, through Week 28): 1 (2%) N (%)
ALS-related TEAE: Disease progression (50 mg, through Week 28): 2 (4%) N (%)
ALS-related TEAE: Dysarthria (50 mg, through Week 28): 4 (8%) N (%)
ALS-related TEAE: Dysphagia (50 mg, through Week 28): 5 (10%) N (%)
ALS-related TEAE: Dysphasia (50 mg, through Week 28): 1 (2%) N (%)
ALS-related TEAE: Dyspnoea (50 mg, through Week 28): 4 (8%) N (%)
ALS-related TEAE: Dyspnoea exertional (50 mg, through Week 28): 0 N (%)
ALS-related TEAE: Fall (50 mg, through Week 28): 10 (21%) N (%)
ALS-related TEAE: Fatigue (50 mg, through Week 28): 3 (6%) N (%)
ALS-related TEAE: Gastrointestinal Disorders (50 mg, through Week 28): 16 (33%) N (%)
ALS-related TEAE: General Disorders and Administration Site Conditions (50 mg, through Week 28): 8 (17%) N (%)
ALS-related TEAE: Increased upper airway secretion (50 mg, through Week 28): 1 (2%) N (%)
ALS-related TEAE: Injury, Poisoning and Procedural Complications (50 mg, through Week 28): 10 (21%) N (%)
ALS-related TEAE: Investigations (50 mg, through Week 28): 3 (6%) N (%)
ALS-related TEAE: Metabolism and Nutrition Disorders (50 mg, through Week 28): 1 (2%) N (%)
ALS-related TEAE: Muscle contractions involuntary (50 mg, through Week 28): 3 (6%) N (%)
ALS-related TEAE: Muscle spasticity (50 mg, through Week 28): 5 (10%) N (%)
ALS-related TEAE: Muscle twitching (50 mg, through Week 28): 1 (2%) N (%)
ALS-related TEAE: Muscular weakness (50 mg, through Week 28): 12 (25%) N (%)
ALS-related TEAE: Musculoskeletal and Connective Tissue Disorders (50 mg, through Week 28): 19 (40%) N (%)
ALS-related TEAE: Musculoskeletal pain (50 mg, through Week 28): 1 (2%) N (%)
ALS-related TEAE: Myalgia (50 mg, through Week 28): 2 (4%) N (%)
ALS-related TEAE: Neck pain (50 mg, through Week 28): 1 (2%) N (%)
ALS-related TEAE: Nervous System Disorders (50 mg, through Week 28): 11 (23%) N (%)
ALS-related TEAE: Oedema peripheral (50 mg, through Week 28): 3 (6%) N (%)
ALS-related TEAE: Pain in extremity (50 mg, through Week 28): 2 (4%) N (%)
ALS-related TEAE: Psychiatric Disorders (50 mg, through Week 28): 2 (4%) N (%)
ALS-related TEAE: Respiratory failure (50 mg, through Week 28): 4 (8%) N (%)
ALS-related TEAE: Respiratory, Thoracic and Mediastinal Disorders (50 mg, through Week 28): 11 (23%) N (%)
ALS-related TEAE: Salivary hypersecretion (50 mg, through Week 28): 8 (17%) N (%)
ALS-related TEAE: Vital capacity decreased (50 mg, through Week 28): 2 (4%) N (%)
ALS-related TEAE: Weight decreased (50 mg, through Week 28): 0 N (%)
Number of TEAEs (50 mg, through Week 28): 277
Number of serious TEAEs (50 mg, through Week 28): 15
Number of serious treatment-related TEAE (50 mg, through Week 28): 1
Number of severe TEAEs (50 mg, through Week 28): 17
Number of treatment-related TEAEs (50 mg, through Week 28): 35
TEAE: Anxiety (50 mg, through Week 28): 2 (4%) N (%)
TEAE: Arthralgia (50 mg, through Week 28): 2 (4%) N (%)
TEAE: Cardiac Disorders (50 mg, through Week 28): 2 (4%) N (%)
TEAE: Constipation (50 mg, through Week 28): 8 (17%) N (%)
TEAE: Cough (50 mg, through Week 28): 1 (2%) N (%)
TEAE: Dehydration (50 mg, through Week 28): 1 (2%) N (%)
TEAE: Depression (50 mg, through Week 28): 6 (13%) N (%)
TEAE: Dizziness (50 mg, through Week 28): 0 N (%)
TEAE: Dry mouth (50 mg, through Week 28): 2 N (%) and 1 (2%) N (%)
TEAE: Dysarthria (50 mg, through Week 28): 4 (8%) N (%)
TEAE: Dysphagia (50 mg, through Week 28): 5 (10%) N (%)
TEAE: Dyspnoea (50 mg, through Week 28): 5 (10%) N (%)
TEAE: Fall (50 mg, through Week 28): 11 (23%) N (%)
TEAE: Fatigue (50 mg, through Week 28): 3 (6%) N (%)
TEAE: Gastrointestinal Disorders (50 mg, through Week 28): 21 (44%) N (%)
TEAE: General Disorders and Administration Site Conditions (50 mg, through Week 28): 14 (29%) N (%)
TEAE: Headache (50 mg, through Week 28): 3 (6%) N (%)
TEAE: Hyperglycaemia (50 mg, through Week 28): 0 N (%)
TEAE: Infections and Infestations (50 mg, through Week 28): 21 (44%) N (%)
TEAE: Injury, Poisoning and Procedural Complication (50 mg, through Week 28): 15 (31%) N (%)
TEAE: Insomnia (50 mg, through Week 28): 0 N (%)
TEAE: Metabolism and Nutrition Disorders (50 mg, through Week 28): 6 (13%) N (%)
TEAE: Muscle contractions involuntary (50 mg, through Week 28): 3 (6%) N (%)
TEAE: Muscle spasticity (50 mg, through Week 28): 5 (10%) N (%)
TEAE: Musculoskeletal and Connective Tissue Disorders (50 mg, through Week 28): 22 (46%) N (%)
TEAE: Musculoskeletal pain (50 mg, through Week 28): 2 (4%) N (%)
TEAE: Nausea (50 mg, through Week 28): 4 (8%) N (%)
TEAE: Neck pain (50 mg, through Week 28): 1 (2%) N (%)
TEAE: Nervous System Disorders (50 mg, through Week 28): 16 (33%) N (%)
TEAE: Pharyngolaryngeal pain (50 mg, through Week 28): 4 (8%) N (%)
TEAE: Pneumonia (50 mg, through Week 28): 3 (6%) N (%)
TEAE: Pruritus (50 mg, through Week 28): 3 (6%) N (%)
TEAE: Psychiatric Disorders (50 mg, through Week 28): 9 (19%) N (%)
TEAE: Rash (50 mg, through Week 28): 2 (4%) N (%)
TEAE: Respiratory failure (50 mg, through Week 28): 4 (8%) N (%)
TEAE: Respiratory, Thoracic and Mediastinal Disorders (50 mg, through Week 28): 17 (35%) N (%)
TEAE: Salivary hypersecretion (50 mg, through Week 28): 8 (17%) N (%)
TEAE: Sinusitis (50 mg, through Week 28): 2 (4%) N (%)
TEAE: Skin and Subcutaneous Tissue Disorders (50 mg, through Week 28): 14 (29%) N (%)
TEAE: Tachycardia (50 mg, through Week 28): 1 (2%) N (%)
TEAE: Upper respiratory tract infection (50 mg, through Week 28): 5 (10%) N (%)
TEAE: Urinary tract infection (50 mg, through Week 28): 3 (6%) N (%)
TEAE: Vomiting (50 mg, through Week 28): 3 (6%) N (%)
serious TEAE: Acute myocardial infarction (50 mg, through Week 28): 1 (2%) N (%)
serious TEAE: Atrial fibrillation (50 mg, through Week 28): 0 N (%)
serious TEAE: Blood and Lymphatic System Disorders (50 mg, through Week 28): 0 N (%)
serious TEAE: Cardiac Disorders (50 mg, through Week 28): 1 (2%) N (%)
serious TEAE: Cardiac failure congestive (50 mg, through Week 28): 1 (2%) N (%)
serious TEAE: Cholecystitis acute (50 mg, through Week 28): 0 N (%)
serious TEAE: Concussion (50 mg, through Week 28): 0 N (%)
serious TEAE: Disease progression (50 mg, through Week 28): 1 (2%) N (%)
serious TEAE: Dyspnoea (50 mg, through Week 28): 1 (2%) N (%)
serious TEAE: Fall (50 mg, through Week 28): 0 N (%)
serious TEAE: Gastrointestinal Disorders (50 mg, through Week 28): 1 (2%) N (%)
serious TEAE: General Disorders and Administration Site Conditions (50 mg, through Week 28): 2 (4%) N (%)
serious TEAE: Hepatobiliary Disorders (50 mg, through Week 28): 0 N (%)
serious TEAE: Ileus (50 mg, through Week 28): 1 (2%) N (%)
serious TEAE: Infections and Infestations (50 mg, through Week 28): 3 (6%) N (%)
serious TEAE: Injury, Poisoning and Procedural Complications (50 mg, through Week 28): 0 N (%)
serious TEAE: Neutropenia (50 mg, through Week 28): 0 N (%)
serious TEAE: Pneumonia (50 mg, through Week 28): 1 (2%) N (%)
serious TEAE: Pneumonia aspiration (50 mg, through Week 28): 0 N (%)
serious TEAE: Pneumonia bacterial (50 mg, through Week 28): 1 (2%) N (%)
serious TEAE: Pulmonary embolism (50 mg, through Week 28): 1 (2%) N (%)
serious TEAE: Respiratory distress (50 mg, through Week 28): 1 (2%) N (%)
serious TEAE: Respiratory failure (50 mg, through Week 28): 4 (8%) N (%)
serious TEAE: Respiratory, Thoracic and Mediastinal Disorders (50 mg, through Week 28): 5 (10%) N (%)
serious TEAE: Subdural haematoma (50 mg, through Week 28): 0 N (%)
serious TEAE: Sudden death (50 mg, through Week 28): 1 (2%) N (%)
serious TEAE: Viral infection (50 mg, through Week 28): 1 (2%) N (%)
≧1 TEAE with an outcome of death (50 mg, through Week 28): 7 N (%) and 7 (15%) N (%)
≧1 serious TEAE (including death) (50 mg, through Week 28): 11 N (%) and 11 (23%) N (%)
≧1 serious treatment-related TEAE (50 mg, through Week 28): 1 (2%) N (%)
≧1 severe TEAE (50 mg, through Week 28): 12 (25%) N (%) and 12 N (%)
Number of TEAEs [4]: 333
Number of serious TEAEs [4]: 18
Number of serious treatment-related TEAEs [4]: 1
Number of severe TEAEs [4]: 20
Number of treatment-related TEAEs [4]: 39
Subjects with a TEAE with action taken of study drug discontinued [4]: 2 N (%) and 2 (4%) N (%)
subjects with TEAEs with an outcome of death (b230 count) [4]: 7 subjects
≧1 TEAE with an outcome of death [4]: 7 N (%) and 7 (15%) N (%)
≧1 serious TEAE (including death) [4]: 14 N (%) and 14 (29%) N (%)
